Broadly, the EC50 is the midpoint of the concentration-response curve. What is called Kd is the concentration at which binding is half-saturated.

Structures are written as SMILES. Where two headings read alike, the source gives them in different places.

The text below walks through data of publication PMC7532004, “Site-specific effects of neurosteroids on GABAA receptor activation and desensitization” (eLife, 2020).

The target of assay [1] is T1, α1β3 GABAAR WT (Homo sapiens, UniProt P14867+P28472).
T1 construct: inserted between the fourth and fifth residues of the mature peptide; photolabeling full-length heteropentameric GABAARs in native membranes; expressed in transfected cells
T1 sequence (P14867 28-456): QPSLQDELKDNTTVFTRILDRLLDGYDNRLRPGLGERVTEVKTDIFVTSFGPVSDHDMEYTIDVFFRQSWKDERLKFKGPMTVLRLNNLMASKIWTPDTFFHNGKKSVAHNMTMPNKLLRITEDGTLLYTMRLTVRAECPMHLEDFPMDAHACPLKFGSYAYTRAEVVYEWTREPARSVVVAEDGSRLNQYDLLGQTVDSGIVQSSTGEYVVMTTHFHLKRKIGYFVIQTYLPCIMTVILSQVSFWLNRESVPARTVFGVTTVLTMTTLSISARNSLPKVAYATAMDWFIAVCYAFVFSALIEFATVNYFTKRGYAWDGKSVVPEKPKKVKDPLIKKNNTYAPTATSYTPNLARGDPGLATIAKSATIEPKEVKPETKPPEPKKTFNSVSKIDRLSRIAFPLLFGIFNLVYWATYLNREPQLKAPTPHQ
T1 sequence (P28472 26-473): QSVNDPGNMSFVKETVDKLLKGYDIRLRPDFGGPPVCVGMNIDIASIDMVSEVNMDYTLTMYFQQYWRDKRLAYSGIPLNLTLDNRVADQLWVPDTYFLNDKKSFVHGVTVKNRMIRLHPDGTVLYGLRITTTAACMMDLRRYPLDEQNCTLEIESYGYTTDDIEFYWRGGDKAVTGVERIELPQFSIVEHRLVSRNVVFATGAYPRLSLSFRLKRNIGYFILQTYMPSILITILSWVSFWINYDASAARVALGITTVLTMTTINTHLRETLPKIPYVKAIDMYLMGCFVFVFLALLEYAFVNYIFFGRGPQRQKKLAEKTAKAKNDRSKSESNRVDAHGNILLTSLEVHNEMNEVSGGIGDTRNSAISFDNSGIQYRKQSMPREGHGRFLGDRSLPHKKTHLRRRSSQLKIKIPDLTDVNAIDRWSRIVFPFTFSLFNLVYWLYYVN
Briefly: [3H]muscimol binding to HEK cell membranes (neurosteroid modulation and isotherms), WT receptor. Particulars: for Emax (% of control) of [3H]muscimol binding: 100% means no effect; for Bmax of [3H]muscimol binding isotherm in the presence of the modulator: etomidate 100 μM, 3α5αP 30 μM, KK148 30 μM, control 9.8 ± 0.8. How it is done: Stably transfected cells were plated into dishes. After reaching 50% confluence, GABAA receptors were expressed by inducing cells with 1 μg/ml of doxycycline with the addition of 5 mM sodium butyrate. Cells were harvested 48 to 72 hr after induction. HEK cells, after induction, were grown to 100% confluence, harvested and washed with 10 mM potassium phosphate, 100 mM potassium chloride (pH 7.5) plus protease inhibitors (Sigma-Aldrich, St. Louis, MO) two times. The cells were collected by centrifugation at 1,000 g at 4°C for 5 min. The cells were homogenized with a glass mortar and a Teflon pestle for ten strokes on ice. The pellet containing the membrane proteins was collected after centrifugation at 20,000 g at 4°C for 45 min and resuspended in a buffer containing 10 mM potassium phosphate, 100 mM potassium chloride (pH 7.5). The protein concentration was determined with micro-BCA protein assay and membranes were stored at −80°C.
(§1) [^3H]muscimol-binding assays were performed using a previously described method ([Chen et al., 2019]). […] Assay tubes were incubated for 1 hr on ice in the dark. […] Membranes were collected on Whatman/GF-C glass filter papers using a Brandel cell harvester (Gaithersburg, MD). To perform [^3H]muscimol binding isotherms, 100 μg/ml aliquots of membrane protein were incubated with 0.3 nM–1 μM [^3H]muscimol for 1 hr on ice in the dark. The specific activity for [^3H]muscimol concentrations from 30 nM to 1 μM was reduced to 2 Ci/mmol by dilution with nonradioactive muscimol. The membranes were collected on Whatman/GF-B glass filter papers using a vacuum manifold. […] For [^3H]muscimol-binding experiments examining competitive interactions between neurosteroids, the combined neurosteroids (0.3 μM 3α5αP or 3 μM KK148 ±30 μM KK150) or the same volume of dimethyl sulfoxide (DMSO) were added to the membranes which were then incubated with 3 nM [^3H]muscimol on ice for 1 hr. Time courses of neurosteroid [^3H]muscimol binding enhancement were examined by adding 10 µM of neurosteroids (3α5αP, 3β5αP) to membranes that had been fully equilibrated with 3 nM [^3H]muscimol for 1 hr on ice; binding was then measured as a function of time at 1, 3, 10, 30, 60 min. The membranes were collected on Whatman/GF-B glass filter papers using a vacuum manifold. Radioactivity bound to the filters was measured by liquid scintillation spectrometry using Bio-Safe II (Research Products International, Mount Prospect, IL).

The target of assay [2] is T2, α1β3(Y284F) GABAAR (UniProt P28472+P62813, Y309F).
T2 construct: expressed in transfected cells; host or cells: HEK293S GnTI- (ATCC CRL-3022), transient
As to the kind of experiment: [3H]muscimol binding to HEK cell membranes, β3 intrasubunit site mutant. Also noted: species or system rat α1, human β3. Particulars: for Emax (% of control) of [3H]muscimol binding: 100% means no effect. The method, then:
The human α1 and β3 GABAAR subunits were subcloned into pcDNA3 for molecular manipulations and cRNA synthesis. Using QuikChange Site-Directed Mutagenesis Kit (Agilent Technologies, Santa Clara, CA), a FLAG tag was first added to the α1 subunit then an 8xHis tag was added to generate the following His-FLAG tag tandem ([…]), inserted between the fourth and fifth residues of the mature peptide. The α1 and β3 subunits were then transferred into the pcDNA4/TO and pcDNA5/TO vectors (Thermo Fisher Scientific), respectively, for tetracycline inducible expression. Transient expression was done using the GABAAR subunits rat α1FLAG ([Ueno et al., 1996]) and human β3 obtained from Geoffrey White (Neurogen, Branford, CT), each were subcloned into pcDNA3 for molecular manipulations and cRNA synthesis. Point mutations were generated using the QuikChange Site-Directed Mutagenesis Kit (Agilent) and the coding region was fully sequenced prior to use. The cDNAs were linearized with XbaI (NEB Labs, Ipswich, MA), and the cRNAs were generated using T7 mMessage mMachine (Ambion, Austin, TX).
as §1

Where [3] appears, read: WT α1β3, 3 nM [3H]muscimol, 1 hr on ice, read-out: EC50 for modulation of [3H]muscimol binding.

In the case of `C#CCCO[C@@H]1CC[C@H]2[C@@H]3CC[C@H]4CC5(CC[C@]4(C)[C@H]3CC[C@]12C)N=N5` [KK150], the “Effect on enhancement of [3H]muscimol binding by 3α5αP and KK148” value in assay [1] (30 μM KK150 with 0.3 μM 3α5αP or 3 μM KK148, 3 nM [3H]muscimol) is given as “inhibited”. In assay [1] (WT α1β3, 3 nM [3H]muscimol), the “Hill slope for modulation of [3H]muscimol binding” value (from here on “Hill slope for modulation”) stood at 1.12 ± 0.42 and the “Emax (% of control) of [3H]muscimol binding” value is 142.5 ± 3.9 % of control. Further, the concentration for a half-maximal effect (EC50) in assay [1] (setting [3]) was 2760 ± 2320 nM.
As to `NCc1cc(=O)[nH]o1` [muscimol], the “Bmax of [3H]muscimol binding isotherm” value was 10.6 ± 0.9 (P > 0.99 vs. WT) pmol/mg in assay [2] (α1β3(Y284F)) and 12.1 ± 1.4 pmol/mg in assay [1] (WT α1β3). Further, the dissociation constant (Kd) in assay [2] (α1β3(Y284F), read-out: Kd of [3H]muscimol binding isotherm) was 46.6 ± 3.8 nM; in assay [1] (WT α1β3, 0.3 nM–1 μM [3H]muscimol, read-out: Kd of [3H]muscimol binding isotherm), 48.1 ± 4 nM.
As for `CC(=O)[C@H]1CC[C@H]2[C@@H]3CC[C@H]4C[C@@H](O)CC[C@]4(C)[C@H]3CC[C@]12C` [3β5αP, epi-allopregnanolone], the “Emax (% of control) of [3H]muscimol binding” value in assay [2] (α1β3(Y284F), 3 nM [3H]muscimol) was “**148.6 ± 4.9 % of control”. This compound also showed an EC50 in assay [1] of 260 ± 70 nM. In addition, in assay [1] (10 µM neurosteroid added to membranes equilibrated with 3 nM [3H]muscimol, 4°C), the “Time constant (τ) of enhancement of [3H]muscimol binding” value was 3.97 ± 0.15 min. Also, in assay [1] (WT α1β3, 3 nM [3H]muscimol), the “Hill slope for modulation” value is recorded as 0.89 ± 0.26 and the “Emax (% of control) of [3H]muscimol binding” value is on record as 195.6 ± 5.7 % of control.
Take `CC(=O)[C@H]1CC[C@H]2[C@@H]3CC[C@H]4C[C@H](O)CC[C@]4(C)[C@H]3CC[C@]12C` [3α5αP, allopregnanolone]: the EC50 in assay [2] is 190 ± 40 nM; in assay [1], 240 ± 40 nM. Further, the “Hill slope for modulation” value in assay [2] (α1β3(Y284F), 3 nM [3H]muscimol) came out at 0.87 ± 0.16; in assay [1] (WT α1β3, 3 nM [3H]muscimol), 1.10 ± 0.14. The “Emax (% of control) of [3H]muscimol binding” value in assay [2] (α1β3(Y284F), 3 nM [3H]muscimol) was 342.3 ± 13.9 % of control; in assay [1] (WT α1β3, 3 nM [3H]muscimol), 374.1 ± 11.1 % of control. Moreover, the “Bmax of [3H]muscimol binding isotherm in the presence of the modulator” value in assay [1] (WT α1β3) amounted to 10.3 ± 0.7 pmol/mg.
With `C#CCCO[C@H]1CC[C@H]2[C@@H]3CC[C@H]4CC5(CC[C@]4(C)[C@H]3CC[C@]12C)N=N5` [KK148], the “Hill slope for modulation” value in assay [2] (α1β3(Y284F), 3 nM [3H]muscimol) turned out to be 1.35 ± 0.13; in assay [1] (WT α1β3, 3 nM [3H]muscimol), 1.36 ± 0.16. The “Emax (% of control) of [3H]muscimol binding” value in assay [2] (α1β3(Y284F), 3 nM [3H]muscimol) was “**357.2 ± 8.1 % of control”; in assay [1] (WT α1β3, 3 nM [3H]muscimol), 431.0 ± 19.5 % of control. In addition, the half-maximal effective concentration (EC50) in assay [2] (α1β3(Y284F), 3 nM [3H]muscimol, read-out: EC50 for modulation of [3H]muscimol binding) amounted to 1790 ± 440 nM; in assay [1] (setting [3]), 2400 ± 360 nM. In assay [1] (WT α1β3), the “Bmax of [3H]muscimol binding isotherm in the presence of the modulator” value was 10.8 ± 0.9 pmol/mg.
